Laboratory results published in patent EP1978972B1, “USE OF ALKYLGLUCOSIDE ESTERS AS BETA-DEFENSIN INDUCERS” (Pierre Fabre Dermo-Cosmétique, priority 2006, dated 2007).

Columns and labels:
[1] = test system: hBD-3; test: Immunohistochemistry of hBD-3 peptide in skin explants; assay type: cell-based, human; conditions: skin explant, qualitative
Experimental: (§1) Les échantillons inclus dans la résine Tissue Tek® sont coupés à froid (température de la chambre à -25°C et la température du porte-objet à - 28°C) à l'aide d'un cryostat (Leica CM 3050s, Nussloch). Les cryocoupes d'une épaisseur de 5 µm sont récupérées sur des lames porte-objet prétraitées, puis mises à sécher environ 2 h à température ambiante et stockées à -20°C pour une utilisation ultérieure. Avant de réaliser l'immuno-marquage, les coupes sont fixées à l'acétone à -20°C pendant 10 min, séchées et conservées à -20°C. Lors d'une première étape, les coupes sont hydratées puis incubées avec les anticorps primaires dirigés contre les peptides d'intérêt dilués dans du PBS. Les anticorps primaires utilisés sont les suivants : • Goat Anti-human BD-2 (500-P161G, Peprotech Inc) dilué au 1/50^e • Rabbit Anti-human defensin-3 (AB3478, Chemicon international) dilué au 1/1000^e • Rabbit Anti-human LL37 (G-075-06, Phoenix Pharmaceuticals Inc) dilué au 1/50^e
Pour révéler le complexe Antigène-Anticorps, le kit DAKO LSAB® (DAKO Corporation) est utilisé selon les recommandations du fournisseur. La révélation est réalisée à l'aide d'un substrat de la péroxydase : la 3,3'diaminobenzidine (DAB) (DAKO Corporation). […]

[2] = test system: S. aureus; test: Colonisation of skin explant by exogenous S. aureus during 24 h after adhesion step; assay type: cell-based, Staphylococcus aureus; conditions: systemic treatment, in words
Experimental: Il est par ailleurs possible d'observer la colonisation de l'explant par le germe exogène (S. aureus) après l'étape d'adhésion pendant 24 h. […] L'effet inverse est observé avec le traitement par le TNF-α, cytokine pro-inflammatoire, qui après avoir entraîné une forte chute de l'adhésion de S. aureus (Cf.III.4.2) ne permet pas une limitation de la croissance du germe pathogène sur l'explant et ceci au dépend du germe commensal S. epidermidis.
La figure 12 annexée illustre la comparaison de la colonisation d'une souche contaminante, S. aureus, avec celle d'une souche commensale, S. epidermis.

[3] = test system: S. aureus; test: Adhesion of S. aureus on skin explant (modified Franz cell), count of adherent bacteria; assay type: cell-based, Staphylococcus aureus
Description: Pour révéler le complexe Antigène-Anticorps, le kit DAKO LSAB® (DAKO Corporation) est utilisé selon les recommandations du fournisseur. La révélation est réalisée à l'aide d'un substrat de la péroxydase : la 3,3'diaminobenzidine (DAB) (DAKO Corporation). La réaction enzymatique est révélée par une coloration brune. • ➢L'adhésion des micro-organismes est réalisée dans une cellule à double compartimentation, de type cellule de Franz modifiée. • ➢Une suspension de S.aureus (CIP 53.154) équivalente à 0,5.10^7 micro-organismes est introduite au sein du compartiment supérieur de la cellule. Le dispositif est incubé de 2 h à 37°C sous une atmosphère à 5 % de CO2. A la fin de cette période d'incubation, le surnageant est retiré afin d'éliminer les bactéries non adhérentes. Les échantillons de peau sont ensuite rincés deux fois avec 1 ml de mélange DMEM/HAMF12. Un dénombrement bactérien à l'issue de cette étape donne la proportion de bactéries ayant adhéré à l'explant (T+2 h). Un témoin est réalisé dans le but de déterminer l'adhésion non spécifique des bactéries. • ➢La stimulation de l'expression des β-défensines cutanées précède l'étape d'adhésion. Son objectif est d'étudier l'impact de l'induction des peptides antimicrobiens par des actifs potentiels de type « alkyle mono- ou di-ester d'α,β-butylglucoside » sur l'adhésion de souches bactériennes. Le traitement est effectué en topique ou en systémique. Le temps de stimulation des explants cutanés est de 24 h à 37°C en présence de 5 % de CO2.
Pour analyse, les explants sont retirés de leur cellule, des punchs de diamètres différents (3 mm, 4 mm et 6 mm) sont effectués pour un test MTT de survie, les marquages immuno-histologiques et les analyses des transcrits par RT-PCR. Le reste de peau est utilisé pour une estimation de la flore bactérienne adhérente.
Le dénombrement de la flore bactérienne adhérente exogène par unité de surface de peau a été effectué selon deux méthodes : • par dénombrement bactérien sur milieu solide • par comptage de la radioactivité émise (la souche contaminante étant marquée au H^3) est effectuée. […]
Après une application topique de 5 h et plusieurs rinçages de la surface épidermique d'un explant cutané, l'effet du traitement par l'α,β-LBG brut sur l'adhésion de S.aureus sur ce même explant a été quantifié par le dénombrement des germes adhérents à l'issue d'une mise en contact de 2 h. […]
Après application topique et plusieurs rinçages de la surface épidermique des explants cutanés, l'effet du traitement par les isoformes de l'ester de laurate de butylglucoside pur à 90 %, séparées, α seul, β seul, ou en mélange α,β-LBG (56 % α/44 % β) sur l'adhésion de S. aureus sur l'épiderme a été comparé après quantification des germes adhérents par dénombrement.

[4] = test system: hBD-3; test: Immunohistochemistry of hBD-3 peptide in gingival explant, systemic treatment; assay type: cell-based, human; conditions: 30 µg/ml, 5 h, qualitative
Experimental: Les explants gingivaux humains de taille variable et petite sont rincés dix fois dans du PBS sans antibiotiques puis mis en culture sur une grille afin d'éviter leur immersion totale, posés côté derme.
as §1
Pour révéler le complexe Antigène-Anticorps, le kit DAKO LSAB® (DAKO Corporation) est utilisé selon les recommandations du fournisseur. […]

laurate de butylglucoside [αβ-LBG brut]
production du peptide hBD-3 dans les couches supérieures de l'épiderme ([1]; systemic, 24 h): stimulation de la production
production du peptide hBD-3 dans les couches supérieures de l'épiderme ([1]; topical): stimulation de la production
multiplication / croissance du germe pathogène (S. aureus) sur l'explant [2]: ralentit la multiplication du germe pathogène
diminution de l'adhésion des germes sur l'explant ([3]; systemic 30 µg/ml, separate compartments, vs unstimulated control): 11%
baisse de l'adhésion de S. aureus ([3]; topical 30 µg/ml for 5 h, then 2 h contact, vs untreated control): 20%
production du peptide hBD-3 dans les couches supérieures de l'épithélium gingival [4]: induction de la production du peptide hBD-3
